Data taken from US12226405B2, “Compounds and compositions for inhibiting the activity of HIF2-alpha and their methods of use” (Novartis AG, priority 2020, dated 2025).

Assays:
[1] = test system: HIF2α-regulated expression of the endogenous target gene hEGLN3 in 786-O cells; experiment: Cellular iScript assay for HIF2α (quantitative RT-PCR of hEGLN3); format: cell-based, human; settings: Homo sapiens, 786-0, 48 hours incubation
Outline: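 786-O cells were exposed to eleven 2-fold compound dilutions for 48 h at 37° C. Lysates underwent one-step TaqMan qRT-PCR for hEGLN3 with beta-actin as reference; 2^(−ΔΔCt) versus DMSO, as % of control, was fit with a four-parameter model to give IC50.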

[2] = test system: HIF2α-dependent transcription in 786-O-HRE-Luc cells; experiment: In vitro cellular hypoxia response element (HRE) reporter gene assay (RGA) for HIF2α; format: cell-based, human; settings: Homo sapiens, 24 hours incubation
Outline: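 Renal carcinoma cells carrying a 4×HRE-driven PEST-destabilised firefly luciferase were treated a day after seeding with eleven 2-fold compound dilutions (0.1% DMSO) for 24 h at 37° C. BrightGlo luminescence, background-subtracted and expressed as % of DMSO control, was fitted four-parametrically for IC50.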

[3] = target: HIF2α PAS-B domain (236-350, biotinylated on the N-terminus) (Homo sapiens (Human), UniProt Q99814)
Sequence of HIF2α PAS-B domain (236-350, biotinylated on the N-terminus) (Q99814 236-350): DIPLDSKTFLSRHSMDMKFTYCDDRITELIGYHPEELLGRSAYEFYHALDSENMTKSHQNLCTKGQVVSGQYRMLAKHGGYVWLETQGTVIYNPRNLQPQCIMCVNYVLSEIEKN
Protocol: The assay buffer contained 50 mM Tris-HCl pH7 (Sigma), 20 mM NaCl (Fluka), 0.02% BSA (Sigma), 0.005% Triton X-100 (Pierce) and 1 mM DTT (Fluka). After a 30 min incubation period, 5 μL Streptavidin PVT SPA Beads (Perkin Elmer) at 1.2 mg/mL, diluted in the buffer, were added.

| SMILES | IC50 [1] [nM] | IC50 [2] [nM] | IC50 [3] [nM] |
| --- | --- | --- | --- |
| Cc1nccc2c1C(F)(F)CC[C@@]21CN2C=C(C(F)(F)F)C=C(OC(F)F)C2=N1 [Example 32, (S)-8-(difluoromethoxy)-8′,8′-difluoro-1′-methyl-6-(trifluoromethyl)-7′,8′-dihydro-3H,6′H-spiro[imidazo[1,2-a]pyridine-2,5′-isoquinoline]] | 78 | 861 | 13 |
| [2H]C([2H])([2H])c1nccc2c1C(F)(F)CC[C@@]21CN2C=C(C(F)(F)F)C=C(OC(F)F)C2=N1 [Example 33, (S)-8-(difluoromethoxy)-8′,8′-difluoro-1′-(methyl-d3)-6-(trifluoromethyl)-7′,8′-dihydro-3H, 6′H-spiro[imidazo[1,2-a]pyridine-2,5′-isoquinoline]] | 78 | 547 | 17 |
| COc1nccc2c1C(F)(F)CC[C@@]21CN2C=C(C(F)(F)F)C=C(OC(F)F)C2=N1 [Example 34, (S)-8-(difluoromethoxy)-8′,8′-difluoro-1′-methoxy-6-(trifluoromethyl)-7′,8′-dihydro-3H, 6′H-spiro[imidazo[1,2-a]pyridine-2,5′-isoquinoline]] | 197 | 1430 | 23 |
| N#CC1=CN2C[C@@]3(CCCc4cc(F)ccc43)N=C2C(OC(F)F)=C1 [Example 35, (S)-8-(difluoromethoxy)-6′-fluoro-3′,4′-dihydro-2′H,3H-spiro[imidazo[1,2-a]pyridine-2,1′-naphthalene]-6-carbonitrile] | 83 | 267 | 9 |
| FC(F)OC1=CC(C(F)(F)F)=CN2C[C@@]3(CCCc4c3ccnc4Cl)N=C12 [Example 36, (S)-1′-chloro-8-(difluoromethoxy)-6-(trifluoromethyl)-7′,8′-dihydro-3H,6′H-spiro[imidazo[1,2-a]pyridine-2,5′-isoquinoline]] | 73 | 147 | 6 |
| FC(F)OC1=CC(C(F)(F)F)=CN2C[C@@]3(CCCc4cc(Cl)ncc43)N=C12 [Example 37, (S)-3′-chloro-8-(difluoromethoxy)-6-(trifluoromethyl)-6′,7′-dihydro-3H,5′H-spiro[imidazo[1,2-a]pyridine-2,8′-isoquinoline]] | 89 | 308 | 25 |
| N#Cc1ccc2c(c1)CCC[C@@]21CN2C=C(C(F)(F)F)C=C(OC(F)F)C2=N1 [Example 38, (S)-8-(difluoromethoxy)-6-(trifluoromethyl)-3′,4′-dihydro-2′H,3H-spiro[imidazo[1,2-a]pyridine-2,1′-naphthalene]-6′-carbonitrile] | 84 | 322 | 12 |
| Fc1c(Br)ccc2c1OCC[C@@]21CN2C=C(C(F)(F)F)C=C(OC(F)F)C2=N1 [Example 39, (S)-7-bromo-8′-(difluoromethoxy)-8-fluoro-6′-(trifluoromethyl)-3′H-spiro[chroman-4,2′-imidazo[1,2-a]pyridine]] | 49 | 251 | ≤ 6 |
| Fc1c(C(F)(F)F)ccc2c1OCC[C@@]21CN2C=C(C(F)(F)F)C=C(OC(F)F)C2=N1 [Example 40, (S)-8′-(difluoromethoxy)-8-fluoro-6′,7-bis(trifluromethyl)-3′H-spiro[chroman-4,2′-imidazo[1,2-a]pyridine]] | 50 | 190 | 6 |
| FC(F)OC1=CC(C(F)(F)F)=CN2C[C@@]3(CCOc4cc(Cl)ccc43)N=C12 [Example 41, (S)-7-chloro-8′-(difluoromethoxy)-6′-(trifluoromethyl)-3′H-spiro[chroman-4,2′-imidazo[1,2-a]pyridine]] | 54 | 283 | 11 |
| FCOC1=CC(C(F)(F)F)=CN2C[C@@]3(CCOc4c3ccc(Br)c4F)N=C12 [Example 42, (S)-7-bromo-8-fluoro-8′-(fluoromethoxy)-6′-(trifluoromethyl)-3′H-spiro[chroman-4,2′-imidazo[1,2-a]pyridine]] | 72 | 96 | 8 |
| Fc1c(Cl)ccc2c1OCC[C@@]21CN2C=C(C(F)(F)F)C=C(OC(F)F)C2=N1 [Example 43, (S)-7-chloro-8′-(difluoromethoxy)-8-fluoro-6′-(trifluoromethyl)-3′H-spiro[chroman-4,2′-imidazo[1,2-a]pyridine]] | 59 | 180 | 10 |
| Fc1ccc2c(c1F)OCC[C@@]21CN2C=C(C(F)(F)F)C=C(OC(F)F)C2=N1 [Example 45, (S)-8′-(difluoromethoxy)-7,8-difluoro-6′-(trifluoromethyl)-3′H-spiro[chroman-4,2′-imidazo[1,2-a]pyridine]] | 85 | 313 | ≤ 10 |
| Cc1ccc2c(c1F)OCC[C@@]21CN2C=C(C(F)(F)F)C=C(OC(F)F)C2=N1 [Example 46, (S)-8′-(difluoromethoxy)-8-fluoro-7-methyl-6′-(trifluoromethyl)-3′H-spiro[chroman-4,2′-imidazo[1,2-a]pyridine]] | 50 | 68 | 13 |
| Fc1cccc2c1OCC[C@@]21CN2C=C(C(F)(F)F)C=C(OC(F)F)C2=N1 [Example 47, (S)-8′-(difluoromethoxy)-8-fluoro-6′-(trifluoromethyl)-3′H-spiro[chroman-4,2′-imidazo[1,2-a]pyridine]] | 82 | 694 | 11 |
| FC(F)OC1=CC(C(F)(F)F)=CN2C[C@@]3(CCOc4c(Cl)cccc43)N=C12 [Example 48, (S)-8-chloro-8′-(difluoromethoxy)-6′-(trifluoromethyl)-3′H-spiro[chroman-4,2′-imidazo[1,2-a]pyridine]] | 63 | 974 | ≤ 10 |
| N#CC1=CN2C[C@@]3(CCOc4c3ccc(Br)c4F)N=C2C(OC(F)F)=C1 [Example 49, (S)-7-bromo-8′-(difluoromethoxy)-8-fluoro-3′H-spiro[chroman-4,2′-imidazo[1,2-a]pyridine]-6′-carbonitrile] | 173 | 979 | 12 |
| FC(F)OC1=CC(C(F)(F)F)=CN2C[C@@]3(CCOc4cc(Br)ccc43)N=C12 [Example 50, (S)-7-bromo-8′-(difluoromethoxy)-6′-(trifluoromethyl)-3′H-spiro[chroman-4,2′-imidazo[1,2-a]pyridine]] | 61 | 153 | ≤ 10 |
| N#CC1=CN2C[C@@]3(CCOc4c3ccc(I)c4F)N=C2C(OC(F)F)=C1 [Example 51, (S)-8′-(difluoromethoxy)-8-fluoro-7-iodo-3′H-spiro[chroman-4,2′-imidazo[1,2-a]pyridine]-6′-carbonitrile] | 81 | 509 | 9 |
| Fc1c(Br)ccc2c1OCC[C@@]21CN2C=C(Cl)C=C(OC(F)F)C2=N1 [Example 52, (S)-7-bromo-6′-chloro-8′-(difluoromethoxy)-8-fluoro-3′H-spiro[chroman-4,2′-imidazo[1,2-a]pyridine]] | 87 | 416 | 11 |
| FC(F)(F)C1=CN2C[C@@]3(CCOc4cc(C(F)(F)F)ccc43)N=C2C(Cl)=C1 [Example 53, (S)-8′-chloro-6′,7-bis(trifluoromethyl)-3′H-spiro[chroman-4,2′-imidazo[1,2-a]pyridine]] | 184 | 839 | 14 |
| Fc1c(OC(F)F)ccc2c1OCC[C@@]21CN2C=C(C(F)(F)F)C=C(OC(F)F)C2=N1 [Example 54, (S)-7,8′-bis(difluoromethoxy)-8-fluoro-6′-(trifluoromethyl)-3′ H-spiro[chroman-4,2′-imidazo[1,2-a]pyridine]] | 85 | 317 | 33 |
| FC(F)OC1=CC(C(F)(F)F)=CN2C[C@@]3(CCOc4c(C(F)F)cccc43)N=C12 [Example 55, (S)-8′-(difluoromethoxy)-8-(difluoromethyl)-6′-(trifluoromethyl)-3′H-spiro[chroman-4,2′-imidazo[1,2-a]pyridine]] | 115 | 7650 | 9 |
| FC(F)OC1=CC(C(F)(F)F)=CN2C[C@@]3(CCOc4c3ccnc4Cl)N=C12 [Example 56, (S)-8′-chloro-8-(difluoromethoxy)-6-(trifluoromethyl)-2′,3′-dihydro-3H-spiro[imidazo[1,2-a]pyridine-2,4′-pyrano[2,3-c]pyridine]] | 164 | 6660 | 13 |
| Fc1c(Br)ccc2c1OC[C@H](F)[C@@]21CN2C=C(C(F)(F)F)C=C(OC(F)F)C2=N1 [Example 57, (2′S,3R)-7-bromo-8′-(difluoromethoxy)-3,8-difluoro-6′-(trifluoromethyl)-3′H-spiro[chroman-4,2′-imidazo[1,2-a]pyridine]] | 62 | 196 | 12 |
| Fc1c(Br)ccc2c1OC[C@@H](F)[C@@]21CN2C=C(C(F)(F)F)C=C(OC(F)F)C2=N1 [Example 58, (2′S,3S)-7-bromo-8′-(difluoromethoxy)-3,8-difluoro-6′-(trifluoromethyl)-3′H-spiro[chroman-4,2′-imidazo[1,2-a]pyridine]] | 173 | 183 | 8 |
| FC(F)OC1=CC(C(F)(F)F)=CN2C[C@@]3(N=C12)c1ccc(Br)cc1OC[C@@H]3F [Example 59, (2′S,3R)-7-bromo-8′-(difluoromethoxy)-3-fluoro-6′-(trifluoromethyl)-3′H-spiro[chroman-4,2′-imidazo[1,2-a]pyridine]] | 55 | 73 | 12 |
